Experimental findings from a melting point compilation (Tetko et al.; mined from patent text by program, amines drawn as free bases though some values may be those of a salt) are described below.

In general, melting point refers to the temperature, or range, at which the solid turns liquid.

Compound `O=C(C=Cc1cccc(Br)c1)c1cnc2sc3c(n12)CCCCC3` showed a melting point of 125 to 126 °C.
Regarding `Cc1cc(C)c2c(c1)-c1cc(Br)c(C)cc1P(=O)(O)O2`, the melting point came to 260 °C.
In the case of `O=C1Nc2ccccc2C12COc1c(Cl)cc3c(c12)OCCO3` (stereo not drawn) it was 255 to 257 °C; in that of `COc1cc(N)c2ncccc2c1OCc1ccc(Cl)cc1`, 122 to 123 °C; in that of `CCCOCCc1ccc(-c2ccc3c(c2)C=C(C(=O)Nc2ccc(CN(C)C4CCOCC4)cc2)CCS3(=O)=O)c(F)c1`, 172 to 174 °C.
The compound `CC(C)(C)OC(=O)N[C@H](Cc1ccccc1)C(=O)OCCCNc1cccc2c1C(=O)c1ccccc1C2=O` displayed a melting point of 168 °C.
Compound `CCCCCCCCCCCC=CC(O)C(COC1OC(CO)C(O)C(O)C1O)NC(=O)CCCCCCCCCCCCCCCCC` (stereo not drawn) showed a melting point of 209 to 210 °C.
`O=C(Nc1ccccc1F)C1C(=O)Sc2ccccc21` (stereo not drawn) returned a melting point of 155 to 156 °C.
In the case of `C[C@]1(CN2CCN(C3CCN(CC=Cc4ccc(OC(F)(F)F)cc4)CC3)CC2)Cn2cc([N+](=O)[O-])nc2O1` it was 157 to 158 °C; in that of `CCC(=O)NCC[C@@H]1CCc2ccc3c(c21)CCO3`, 113 to 115 °C.
`O=c1c2c(n(-c3cccc(Cl)c3)c3ncccc13)CCN(Cc1ccccc1)C2` returned a melting point of 157 to 161 °C.
In the case of `Cc1cc(NC(=O)C(C)(C)Sc2ccc(Cl)cc2)c(C)c(C)c1O` it was 134 °C.
In the case of `Cc1[nH]n(Cc2cc([N+](=O)[O-])ccc2Cl)c2nc(-c3ccncc3)nc(=O)c1-2` it was 290 to 291 °C.
Take `C1=C[C@H]2CCN(CC3CC3)C[C@@H]2Cc2ccccc21` (relative stereo): the melting point was 157 to 159 °C.
The value for `COc1cccc2c(=O)n(C)c(-c3ccc(OC4CCN(C5CCC5)CC4)cc3)nc12` was 201 to 204 °C; that for `CC(=O)c1cc(O)c(-c2ccccc2)cc1O` was 169 °C.
The compound `COC(=O)CCCc1cc2nc(Cl)ccc2n1S(=O)(=O)c1ccc(N(C)C)cc1Cl` had a melting point of 123 to 124 °C.
The compound `Cc1ccc(C2(c3ccc(C)cc3)CCN=C2NC(=O)c2cc(C)n[nH]2)cc1` yielded a melting point of 243 to 245 °C.
Consider `Cc1noc(C2CN=CN(C(c3ccccc3)(c3ccccc3)c3ccccc3)C2)n1` (stereo not drawn), for which the melting point lay in the range of 72 to 74 °C.
The value for `COC(=O)C(CC(C)C)NCC(=O)n1c(=O)cc(-c2ccccc2)c2cc(C(c3ccc(Cl)cc3)n3ccnc3)ccc21` (stereo not drawn) was 118 °C; that for `CCOC(=O)C(=O)c1csc(NC(=O)Nc2ccc(Cl)cc2)n1` was 230 to 234 °C; that for `COC(=O)C(CC(C)C)NC(=O)c1ccc(NCc2ncc[nH]2)cc1-c1ccccc1` (stereo not drawn) was 156 to 160 °C.
In turn, `Cc1ccc(Nc2nnc(-c3ccc(N4CCOCC4)c([N+](=O)[O-])c3)s2)cc1Cl` displayed a melting point of 268 to 269 °C.
The value for `COc1ncc(CC2SC(N3CCOCC3)=NC2=O)cc1-c1ccc(O)c(C23CC4CC(CC(C4)C2)C3)c1` (stereo not drawn) was 175 to 177 °C; that for `O=C(COc1ccc(Cl)cc1)c1ccccc1` was 81 to 86 °C.
Compound `CCOC(=O)C(CC(=O)c1ccc(Oc2ccccc2)cc1)SC(=O)c1ccccc1` (stereo not drawn) had a melting point of 95 to 96 °C.
In the case of `O=C(OCc1cc(OCCCO)c(OCCCO)c(OCCCO)c1)c1ccccc1`, the melting point is 54 to 55 °C.
The value for `NNC(=O)c1ccc(OCc2cccc(Br)c2)cc1O` was 201 to 203 °C; that for `Nc1nc2cc(Cl)c(Cl)cc2nc1Br` was 232 to 234 °C.
For `O=C1NC(=O)C(Cc2ccc(OC[C@@H]3CCCN3c3ccccn3)cc2)S1` (stereo partly drawn), the melting point lay within 78 to 80 °C.
The value for `COc1c(O)c(CN2CCN(C)CC2)c(O)c2c(=O)cc(-c3ccccc3)oc12` was 179 °C; that for `CCOc1ccn(C2OC(CO)C(O)C2O)c(=O)n1` (stereo not drawn) was 110 to 114 °C.
The value for `CCOC(=O)CCCCCN(C)S(=O)(=O)C=C(C(C)=O)c1cccc([N+](=O)[O-])c1` was 60 to 63 °C.
